The source of these data is the supplement of paper PMC11061612.

Structures are written as SMILES.

Common to all, as to assay: combination Emax (second highest fraction inhibited in the dose matrix, 72 h); higher = more inhibition; extreme values may be limits of the assay
The subject of assay [1] is HCT-116 (Colorectal Carcinoma). In outline: (§1)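 Cell lines in DMEM/F12 or RPMI with 10% FBS were plated in 1536-well plates, held 24 hours at 37°C, 5% CO2, then given two-drug dose matrices for 72 hours (DMSO typically 0.2%). Viability was read by CellTiter-Glo 2.0 luminescence and scaled as inhibition from 0 (vehicle wells) to 1 (blank wells). Combination Emax is the second-highest inhibition in the matrix; Bliss excess is observed combination effect minus expected EA + EB − EA·EB, EA and EB being single-agent effects.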

Assay [2] deals with MCF7 (Breast Carcinoma). In outline:
as §1

Assay [3] has as its system HLE (Hepatocellular Carcinoma). The gist of the method: as §1
Assay [4] relates to D-392MG (Glioblastoma). The gist of the method:
as §1

For assay [5], the system named is PA-TU-8902 (Pancreatic Carcinoma). The gist of the method:
as §1

Assay [6] concerns NCI-H1688 (Small Cell Lung Carcinoma). The gist of the method:
as §1

The subject of assay [7] is D-283MED (Other Solid Carcinomas). The gist of the method: as §1
The subject of assay [8] is H4 (Low Grade Glioma). In outline:
as §1

Assay [9] relates to SW948 (Colorectal Carcinoma). In outline:
as §1

For assay [10], the system named is YT (Other Blood Carcinomas). The gist of the method: as §1
The subject of assay [11] is KG-1 (Acute Myeloid Leukemia). In outline: as §1
The subject of assay [12] is U-118-MG (Low Grade Glioma). The gist of the method:
as §1

Assay [13] has as its system HCC1143 (Breast Carcinoma). The gist of the method:
as §1

The subject of assay [14] is HOP-92 (Non-Small Cell Lung Carcinoma). The gist of the method:
as §1

In assay [15] the test system is SNG-M (Endometrial Carcinoma). The gist of the method: as §1
Assay [16] has as its system SNU-61 (Colorectal Carcinoma). The gist of the method: as §1
The test system of assay [17] is TYK-nu (Ovarian Carcinoma). In outline:
as §1

Assay [18] concerns ETK-1 (Biliary Tract Carcinoma). In outline:
as §1

The test system of assay [19] is Saos-2 (Osteosarcoma). In outline: as §1
In assay [20] the test system is CAL-39 (Other Solid Carcinomas). In outline: as §1

Regarding `CC(=O)Nc1cccc(-n2c(=O)n(C3CC3)c(=O)c3c(Nc4ccc(I)cc4F)n(C)c(=O)c(C)c32)c1` [Trametinib] + Cc1nc(-c2cn3c(n2)-c2ccc(-c4cnn(C(C)(C)C(N)=O)c4)cc2OCC3)n(C(C)C)n1 [Taselisib] (first compound max 1 µM, 7x7, partner max 10 µM), the “combination Emax” value in assay [1] was 1; in assay [2], 0.732; in [3], 0.401; in [4] it was 0.709; in [5] it was 0.724; in assay [6] it was 0.628. The “combination Emax” value in [7] came out at 0.576; in [8], 0.795; in assay [9], 0.994; in assay [10] it was 0.711; in [11] it was 0.412; in [12], 0.757. Also, the “combination Emax” value in assay [13] is 0.763; in assay [14] it was 0.988; in assay [15], 0.871; in assay [16] it was 0.672; in assay [17], 0.737; in assay [18], 0.86. Besides, the entries for the “combination Emax” value in assay [19] and in assay [20] were 0.681 and 1, respectively.

On to `CC1(C)CCC(CN2CCN(c3ccc(C(=O)NS(=O)(=O)c4ccc(NCC5CCOCC5)c([N+](=O)[O-])c4)c(Oc4cnc5[nH]ccc5c4)c3)CC2)=C(c2ccc(Cl)cc2)C1` [Venetoclax] + C1CN(CCC1(C(=O)N[C@@H](CCO)C2=CC=C(C=C2)Cl)N)C3=NC=NC4=C3C=CN4 [Capivasertib] (first compound max 1 µM, 7x7, partner max 3 µM), for which the “combination Emax” value in assay [1] was determined as 0.309; in [2], 0.42; in assay [3], 0.181; in assay [4] it was 0.239; in assay [5] it was 0.162; in [6] it was 0.294. Moreover, the “combination Emax” value was 0.582 in assay [7]; 0.473 in [8]; 0.646 in assay [9]; 0.47 in assay [10]; 0.516 in [11]; 0.4 in [12]. Besides, the “combination Emax” value stood at 0.239 in assay [13]; 0.402 in [14]; 0.416 in [15]; 0.154 in [16]; 0.298 in assay [17]; 0.331 in assay [18]. Besides, the “combination Emax” value was 0.412 in [19] and 0.279 in assay [20].

Take `CC1(C)CCC(CN2CCN(c3ccc(C(=O)NS(=O)(=O)c4ccc(NCC5CCOCC5)c([N+](=O)[O-])c4)c(Oc4cnc5[nH]ccc5c4)c3)CC2)=C(c2ccc(Cl)cc2)C1` [Venetoclax] + C=CCn1c(=O)c2cnc(Nc3ccc(N4CCN(C)CC4)cc3)nc2n1-c1cccc(C(C)(C)O)n1 [AZD1775] (first compound max 1 µM, partner max 1 µM): the “combination Emax” value was determined as 0.579 in assay [1]; 0.452 in assay [2]; 0.749 in assay [3]; 0.5 in [4]; 0.286 in assay [5]; 0.666 in assay [6]. The “combination Emax” value in assay [7] stood at 0.979; in assay [8] it was 0.85; in [9], 0.773; in assay [10], 0.928; in [11], 0.913; in [12], 0.357. Further, the “combination Emax” value is 0.548 in assay [13]; 0.48 in assay [14]; 0.729 in [15]; 0.373 in [16]; 0.681 in [17]; 0.497 in assay [18]. Besides, the “combination Emax” value was 0.818 in assay [19] and 0.36 in assay [20].

As to `CC1(C)CCC(CN2CCN(c3ccc(C(=O)NS(=O)(=O)c4ccc(NCC5CCOCC5)c([N+](=O)[O-])c4)c(Oc4cnc5[nH]ccc5c4)c3)CC2)=C(c2ccc(Cl)cc2)C1` [Venetoclax] + CCN(CCO)CCCOc1ccc2c(Nc3cc(CC(=O)Nc4cccc(F)c4)[nH]n3)ncnc2c1 [AZD2811] (first compound max 1 µM, 7x7, partner max 1 µM), the “combination Emax” value in assay [1] was 0.456; in [2], 0.31; in assay [3], 0.416; in assay [4], 0.217; in assay [5], 0.192; in assay [6] it was 0.242. In addition, the “combination Emax” value in [7] came out at 0.778; in assay [8], 0.583; in [9] it was 0.799; in assay [10] it was 0.344; in assay [11], 0.84; in [12], 0.357. For the same compound, the “combination Emax” value in assay [13] is 0.318; in [14], 0.476; in [15] it was 0.278; in [16] it was 0.168; in assay [17], 0.247; in assay [18], 0.259. Moreover, the results for the “combination Emax” value in assay [19] and in assay [20] were 0.648 and 0.285, respectively.

With `CC1(C)CCC(CN2CCN(c3ccc(C(=O)NS(=O)(=O)c4ccc(NCC5CCOCC5)c([N+](=O)[O-])c4)c(Oc4cnc5[nH]ccc5c4)c3)CC2)=C(c2ccc(Cl)cc2)C1` [Venetoclax] + CN(C)CCCOc1ccc(-c2ccc3ncc4c(c3c2)n(C2CCOCC2)c(=O)n4C)cn1 [AZD0156] (first compound max 1 µM, 7x7, partner max 1 µM), the “combination Emax” value in [1] was found to be 0.196; in assay [2] it was 0.242; in [3], 0.171; in [4], 0.205; in assay [5] it was 0.209; in assay [6], 0.195. Moreover, the “combination Emax” value came to 0.706 in assay [7]; 0.232 in assay [8]; 0.409 in [9]; 0.475 in [10]; 0.595 in assay [11]; 0.217 in assay [12]. Besides, the “combination Emax” value worked out at 0.232 in assay [13]; 0.292 in assay [14]; 0.127 in assay [15]; 0.182 in [16]; 0.174 in [17]; 0.202 in assay [18]. Moreover, the “combination Emax” value in assay [19] was determined as 0.42; in assay [20] it was 0.21.

As for `CC1(C)CCC(CN2CCN(c3ccc(C(=O)NS(=O)(=O)c4ccc(NCC5CCOCC5)c([N+](=O)[O-])c4)c(Oc4cnc5[nH]ccc5c4)c3)CC2)=C(c2ccc(Cl)cc2)C1` [Venetoclax] + COc1cc(Nc2ncc3c(n2)-c2ccc(Cl)cc2C(c2c(F)cccc2OC)=NC3)ccc1C(=O)O [Alisertib] (first compound max 1 µM, 7x7, partner max 10 µM), the “combination Emax” value in assay [1] was found to be 0.581; in assay [2] it was 0.411; in assay [3], 0.598; in assay [4], 0.416; in assay [5], 0.394; in assay [6] it was 0.398. The “combination Emax” value in [7] was determined as 0.85; in assay [8] it was 0.814; in assay [9], 0.926; in [10], 0.555; in [11] it was 1; in assay [12], 0.527. The “combination Emax” value stood at 0.469 in assay [13]; 0.57 in assay [14]; 0.752 in assay [15]; 0.263 in assay [16]; 0.521 in [17]; 0.453 in assay [18]. Also, the “combination Emax” value in assay [19] stood at 0.682; in [20], 0.704.
